The results in this text go back to US11439148B2, “Pyrimidine derivatives” (SYNGENTA PARTICIPATIONS AG, priority 2017, dated 2022).

Several values for one entry are separate records, joined by “and”; a condition that tells them apart may be missing. Identical values can stand only once.

Type in all cases: in vivo
Assay [1] concerns four weed species (ALOMY, AVEFA, LOLPE, SETVI). Briefly: Adjuvant efficacy with pinoxaden, glasshouse spray test, average over all species. The settings on record: pinoxaden EC, mean over 7.5 and 15 g/ha, adjuvant 0.2% v/v (none in No Adjuvant rows), 21 days, average of ALOMY. The protocol: (§1) The efficacy of adjuvants 1-12 as adjuvants for the herbicide pinoxaden were tested in a glasshouse against four weed species, sown into standard soil in pots and cultivated under controlled conditions in a glasshouse (at 20/16° C. day/night; 16 hours light; 65% humidity). Pinoxaden was added to the spray tank as a standard EC (emulsifiable concentrate) formulation.
(§2) The spray tests were also carried out using pinoxaden in conjunction with adjuvants 1-12. The adjuvants were added to the spray solution at a rate of 0.2% v/v unless otherwise stated. All spray solutions also contained 10% w/w of iso-Propanol. The weed species and their BBCH growth stage at spraying were Avena fatua (AVEFA; growth stage 12), Lolium perenne (LOLPE; growth stage 13), Alopecurus myosuroides (ALOMY; growth stage 13), and Setaria viridis (SETVI; growth stage 13-14). Each spray test was replicated three times. The test plants were then grown in a glasshouse under controlled conditions (at 20/16° C. day/night; 16 hours light; 65% humidity) and watered twice a day. The efficacy of the herbicide was assessed visually and expressed as a percentage of the leaf area killed. Samples were assessed at a time period of 21 days following application. The results shown in Table 4 below are mean averages over the two rates of pinoxaden, and the three replicates.

In assay [2] the test system is four weed species (ABUTH, CHEAL, DIGSA, SETVI). Briefly: Adjuvant efficacy with nicosulfuron, glasshouse spray test, average over all species. The settings on record: nicosulfuron WG, mean over 15 and 60 g/ha, adjuvant 0.2% v/v (none in No Adjuvant rows), 21 days, average of ABUTH. The protocol: The efficacy of adjuvants 1-12 as adjuvants for the herbicide nicosulfuron were tested in a glasshouse against four weed species sown into standard soil in pots and cultivated under controlled conditions in a glasshouse (at 24/18° C. day/night; 16 hours light; 65% humidity). Nicosulfuron was added to the spray tank as a standard WG (water dispersible granule) formulation.
The spray tests were also carried out using nicosulfuron in conjunction with adjuvants 1-12. The adjuvant was added to the spray solution at a rate of 0.2% v/v. All spray solutions also contained 12.5% v/v of iso-Propanol. The weed species and their BBCH growth stage at spraying were Abutilon theophrasti (ABUTH; growth stage 13), Chenopodium album (CHEAL; growth stage 13-14), Digitaria sanguinalis (DIGSA; growth stage 11), and Setaria viridis (SETVI; growth stage 13). Each spray test was replicated three times. The test plants were then grown in a glasshouse under controlled conditions (at 24/18° C. day/night; 16 hours light; 65% humidity) and watered twice a day. The efficacy of the herbicide was assessed visually and expressed as a percentage of the leaf area killed. Samples were assessed at a time period of 21 days following application. The results shown in Table 1 below are mean averages over the two rates of nicosulfuron, and the three replicates.

The subject of assay [3] is Brachiaria platyphylla (BRAPP). Briefly: Adjuvant efficacy with mesotrione, glasshouse spray test. The settings on record: mesotrione SC, mean over 30 and 60 g/ha and 3 replicates; adjuvant 0.2% v/v (none in No Adjuvant rows); % leaf area killed, 21 days after application; Tests 1-3 separate runs.
For assay [4], the system named is weed species BRAPP, COMBE, DIGSA, POLCO. Briefly: Adjuvant efficacy with mesotrione, glasshouse spray test, average over all species (BRAPP set). The settings on record: mesotrione SC, mean over 30 and 60 g/ha; adjuvant 0.2% v/v (none in No Adjuvant rows); 21 days; Tests 1-3, species set with BRAPP (COMBE only in Test 2). The protocol:
The efficacy of adjuvants 1-12 as an adjuvant for the herbicide mesotrione was tested in a glasshouse against four weed species sown into standard soil in pots and cultivated under controlled conditions in a glasshouse (at 24/18° C. day/night; 16 hours light; 65% humidity). Mesotrione was added to the spray tank as a standard SC (suspension concentrate) formulation.
The spray tests were also carried out using mesotrione in conjunction with adjuvants 1-12. The adjuvants were added to the spray solution at a rate of 0.2% v/v unless otherwise stated. All spray solutions also contained 10% w/w of iso-Propanol. The weed species and their BBCH growth stage at spraying were Brachiaria platyphylla (BRAPP; growth stage 13-14) or Brachiaria plantaginea (BRAPL; growth stage 13-14), Commelina benghalensis (COMBE; growth stage 13), Digitaria sanguinalis (DIGSA; growth stage 14), and Polygonum convolvulus (POLCO; growth stage 13-14). Each spray test was replicated three times.
The test plants were then grown in a glasshouse under controlled conditions (at 24/18° C. day/night; 16 hours light; 65% humidity) and watered twice a day. The efficacy of the herbicide was assessed visually and expressed as a percentage of the leaf area killed. Samples were assessed at a time period of 21 days following application. The results shown in Table 3 below are mean averages over the two rates of mesotrione and the three replicates.

In the next assay the test system is Lolium perenne (LOLPE). The assay is described as follows: Adjuvant efficacy with pinoxaden, glasshouse spray test. The following applies: pinoxaden EC, mean over 7.5 and 15 g/ha and 3 replicates; adjuvant 0.2% v/v (none in No Adjuvant rows); % leaf area killed, 21 days after application; Tests 1-4 separate runs. The method, then: as §1, §2
A further assay has as its system Avena fatua (AVEFA). The assay is described as above. The settings on record: pinoxaden EC, mean over 7.5 and 15 g/ha and 3 replicates; adjuvant 0.2% v/v (none in No Adjuvant rows); % leaf area killed, 21 days after application; Tests 1-4 separate runs. The method, then:
as §1, §2

The subject of assay [5] is Alopecurus myosuroides (ALOMY). Described as above. The following applies: pinoxaden EC, mean over 7.5 and 15 g/ha and 3 replicates; adjuvant 0.2% v/v (none in No Adjuvant rows); % leaf area killed, 21 days after application; Tests 1-4 separate runs. The protocol: as §1, §2
The test system of a further assay is Setaria viridis (SETVI). Described as above. The settings on record: pinoxaden EC, mean over 7.5 and 15 g/ha and 3 replicates; adjuvant 0.2% v/v (none in No Adjuvant rows); % leaf area killed, 21 days after application; Tests 1-4 separate runs. The protocol:
as §1, §2

In assay [6] the test system is Septoria tritici. The assay is described as follows: Adjuvant efficacy with isopyrazam on inoculated wheat plants. The following applies: isopyrazam SC, mean over 6.5, 16, 40 and 100 mg/l and 4 replicates, sprayed 4 days after inoculation, percentage of leaf area infected 17-18 days after infection, Tests 1-3 separate runs. The method, then:
Adjuvants 6, 7, 8 and 10 were tested as adjuvants for agrochemical compositions comprising isopyrazam.
Two week old wheat plants were inoculated with the fungus Septoria tritici. […] All spray solutions also contained 10% v/v of iso-Propanol. The leaves of the plants were assessed visually 17-18 days after infection and the damage was expressed as the percentage of the leaf area infected. Each spray test was replicated four times across the four application rates.
The results shown in Table 6 below are mean averages over the four rates of isopyrazam and the four replicates.

For assay [7], the system named is Septoria tritici. Briefly: Adjuvant efficacy with epoxiconazole on inoculated wheat plants. The following applies: epoxiconazole SC 1.5, 4, 8.5 and 20 mg/l, 4 replicates, adjuvant 0.1% v/v (none in No Adjuvant rows), sprayed 4 days after inoculation, percentage of leaf area infected 17-18 days after infection, Tests 1-3 separate runs. The protocol:
Adjuvants 6, 7, 8 and 10 were tested as adjuvants for agrochemical compositions comprising epoxiconazole.
Two week old wheat plants were inoculated with the fungus Septoria tritici. […] All spray solutions also contained 10% v/v of iso-Propanol. The leaves of the plants were assessed visually 17-18 days after infection and the damage was expressed as the percentage of the leaf area infected.

For the compound `CCCCCCCCCCCCOc1cc(OCCOCCOCCOCCOCCOCCOCCOC)ncn1` [Adjuvant 6], the “Mean % Herbicidal Activity Average over all Species” value was found to be 63% in assay [1], 71% in assay [2] and 76% in assay [4]. Moreover, the “Mean % Herbicidal Activity BRAPP” value in assay [3] was 53%. The “Mean % Herbicidal Activity LOLPE” value with Lolium perenne (LOLPE) worked out at 62%. Further, the “Mean % Herbicidal Activity AVEFA” value in the assay with Avena fatua (AVEFA) is listed as 82%. The “Mean % Herbicidal Activity ALOMY” value in [5] is recorded as 23%. The “Mean % Herbicidal Activity SETVI” value in the assay with Setaria viridis (SETVI) is on record as 87%. For the same compound, the “Disease Damage Mean” value was 7% and 9% and 12% in the assay with Septoria tritici [6]; 42% and 10% and 21% with Septoria tritici [7].

As to `CCCCCCCCC=CCCCCCCCCOc1cc(OCCOCCOCCOCCOCCOCCOCCOCCOCCOCCOC)ncn1` [Adjuvant 10], the “Mean % Herbicidal Activity Average over all Species” value in assay [1] is given as 50%; in assay [2] it was 81%; in [4], 80%. Besides, the “Mean % Herbicidal Activity BRAPP” value in [3] was 61%. Moreover, the “Mean % Herbicidal Activity LOLPE” value with Lolium perenne (LOLPE) is given as 25%. Further, the “Mean % Herbicidal Activity AVEFA” value in the assay on Avena fatua (AVEFA) worked out at 80%. Moreover, the “Mean % Herbicidal Activity ALOMY” value in [5] is given as 9%. The “Mean % Herbicidal Activity SETVI” value in the assay on Setaria viridis (SETVI) stood at 89%. Moreover, the “Disease Damage Mean” value is 17% and 14% in the assay with Septoria tritici [6]; 26% in the assay on Septoria tritici [7].
